These results are taken from article PMC8041751, “Structural basis for an exceptionally strong preference for asparagine residue at the S2 subsite of Stenotrophomonas maltophilia dipeptidyl peptidase 7” (Scientific Reports, 2021).

Residues, ends and D or L forms follow the SMILES beside them.

One series concerns the target SmDPP7. Kind of series: Inhibition assay using dipeptide library, Tyr-Tyr-MCA hydrolysis. In kind it is biochemical, Stenotrophomonas maltophilia. The note with it: Xaa-Tyr as competitive inhibitor; substrate 200 µM Tyr-Tyr-MCA; pH 7.0, 298 K; Ki from IC50 by Cheng-Prusoff. The method, then:
Figure 1 Effect of Xaa-Tyr dipeptides on the hydrolytic activity of SmDPP7 towards synthetic substrate Tyr-Tyr-MCA. Inhibition assay was performed as described in “Materials and methods”. Residual activity was measured under conditions where 200 µM Xaa-Tyr dipeptide and 200 µM Tyr-Tyr-MCA, synthetic substrate were added into the reaction solution. […] The standard deviations were obtained from three independent experiments.
(§1) The dipeptide library was purchased from AnaSpec (Fremont, CA, US). Ile-Tyr and Arg-Tyr were synthesized by Eurofins Genomics (Tokyo, Japan). Cys-Tyr and Cys-Asp could not be purchased commercially. Different concentrations (3.13, 6.25, 12.5, 25, 50, 100, and 200 µM) of dipeptides as the inhibitor and 200 µM Tyr-Tyr-MCA (GenScript, NJ, US) as the substrate for DPP7 were added into a reaction buffer consisting of 50 mM sodium phosphate buffer pH 7.0, 5 mM EDTA and 0.005% Tween 20. For DPP11s, different concentrations (1.56, 3.13, 6.25, 12.5, 25, 50, and 100 µM) of dipeptides as the inhibitor and 100 µM Leu-Asp-MCA (Peptide Institute, Osaka, Japan) as the substrate were used. The enzyme reaction was performed at 298 K for 20 min and standard deviations were calculated from three independent experiments. Half-maximal inhibitory concentration (IC50) values were determined by fitting to a sigmoid curve (4-parameter logistic curve) using ImageJ software[35] and inhibition constants (Ki) were calculated using the Cheng-Prusoff Equation[36]. The fluorescence intensity of the released MCA was measured with the same method of determination of kinetics parameters toward dipeptidyl MCA.
The Ki is the equilibrium dissociation constant of an inhibitor or competing ligand from its target. As to Pro-Tyr, the Ki is over 58 µM.

As to His-Tyr, the Ki was over 58 µM.

Turning to Glu-Tyr, the Ki is over 58 µM.

With Ser-Tyr, the Ki was over 58 µM.

Gly-Tyr came in with a Ki of over 58 µM.

Asp-Tyr showed an inhibition constant Ki of over 58 µM.

Ala-Tyr: the Ki was over 58 µM.

Tested on in the next series: not given
Assay: not given
Conditions: of the amino acid; ref 25,26 (Sereda et al. and Mohera et al.); cited from earlier work.
On to `CC(C)[C@H](N)C(=O)O` [Val], for which the “H.I. of P2 aa (hydrophobicity index)” value is listed as 76.

Regarding `N[C@@H](Cc1c[nH]cn1)C(=O)O` [His], the “H.I. of P2 aa (hydrophobicity index)” value is recorded as 8.

`CC[C@H](C)[C@H](N)C(=O)O` [Ile]: the “H.I. of P2 aa (hydrophobicity index)” value is reported as 99.

On to `CSCC[C@H](N)C(=O)O` [Met], for which the “H.I. of P2 aa (hydrophobicity index)” value is listed as 74.

On to `N[C@@H](Cc1c[nH]c2ccccc12)C(=O)O` [Trp], for which the “H.I. of P2 aa (hydrophobicity index)” value was 97.

As for `C[C@H](N)C(=O)O` [Ala], the “H.I. of P2 aa (hydrophobicity index)” value is given as 41.

For `N[C@@H](Cc1ccccc1)C(=O)O` [Phe], the “H.I. of P2 aa (hydrophobicity index)” value was 100.

For `N[C@@H](Cc1ccc(O)cc1)C(=O)O` [Tyr], the “H.I. of P2 aa (hydrophobicity index)” value is given as 63.

In another series the target is PgDPP11 (Porphyromonas gingivalis, UniProt B2RID1). Kind of series: biochemical.
Sequence of PgDPP11 (B2RID1 22-720): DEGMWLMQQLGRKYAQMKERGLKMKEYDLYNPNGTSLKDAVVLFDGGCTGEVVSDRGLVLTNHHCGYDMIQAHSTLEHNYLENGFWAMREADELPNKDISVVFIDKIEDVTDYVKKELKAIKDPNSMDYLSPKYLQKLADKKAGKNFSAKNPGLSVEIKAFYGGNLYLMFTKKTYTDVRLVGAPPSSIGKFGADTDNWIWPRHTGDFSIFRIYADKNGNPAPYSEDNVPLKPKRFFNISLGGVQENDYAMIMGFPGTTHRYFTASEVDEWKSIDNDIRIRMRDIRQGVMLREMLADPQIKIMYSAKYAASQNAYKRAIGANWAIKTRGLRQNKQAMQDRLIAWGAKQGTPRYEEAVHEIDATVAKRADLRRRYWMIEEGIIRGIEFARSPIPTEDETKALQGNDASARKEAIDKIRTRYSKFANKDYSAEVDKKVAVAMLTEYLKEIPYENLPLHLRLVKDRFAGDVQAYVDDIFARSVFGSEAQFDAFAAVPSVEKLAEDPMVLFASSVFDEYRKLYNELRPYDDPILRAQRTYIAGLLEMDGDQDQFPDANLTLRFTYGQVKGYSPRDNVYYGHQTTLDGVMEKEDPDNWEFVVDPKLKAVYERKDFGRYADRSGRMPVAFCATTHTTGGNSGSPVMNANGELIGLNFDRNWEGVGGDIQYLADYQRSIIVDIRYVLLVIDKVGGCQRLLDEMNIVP
Conditions: not given
The method, then: Figure 2 Correlation diagrams between the hydrophobicity index (H.I.) of P2-amino acid and residual DPP activities of S46 peptidases. (a) SmDPP7. The outlier dipeptides Asn-Tyr and Trp-Tyr are coloured in red and blue, respectively (see text). (b) PgDPP7. Tyr-Tyr-MCA hydrolysis of PgDPP7 was inhibited by Xaa-Tyr dipeptide. Residual activity was measured under conditions where 200 µM dipeptides and 200 µM Tyr-Tyr-MCA were added into the reaction solution. (c) DPP11 from S. maltophilia (SmDPP11). (d) PgDPP11. For DPP11s, Leu-Asp-MCA hydrolysis was inhibited by Xaa-Asp dipeptide. Residual activity was measured under conditions where 100 µM dipeptides and 100 µM Leu-Asp-MCA were added into the reaction solution. The hydrophobicity indices of the amino acids were adopted from Sereda et al., 1994 and Mohera et al. 1995[25],[26]. R is the correlation coefficient. The standard deviations were obtained from three independent experiments.
as §1
The molecule `N[C@@H](CO)C(=O)N[C@@H](CC(=O)O)C(=O)O` [Ser-Asp] (H-Ser-Asp-OH) had an inhibitory constant (Ki) of over 5.11 µM.

As to `N[C@@H](Cc1c[nH]c2ccccc12)C(=O)N[C@@H](CC(=O)O)C(=O)O` [Trp-Asp] (H-Trp-Asp-OH), the Ki is 1.36 ± 0.06 µM.

Consider `NC(=O)C[C@H](N)C(=O)N[C@@H](CC(=O)O)C(=O)O` [Asn-Asp] (H-Asn-Asp-OH), for which the affinity, expressed as Ki, was 4.06 ± 0.16 µM.

Turning to `NCCCC[C@H](N)C(=O)N[C@@H](CC(=O)O)C(=O)O` [Lys-Asp] (H-Lys-Asp-OH), the inhibition constant Ki was over 5.11 µM.

In turn, `N=C(N)NCCC[C@H](N)C(=O)N[C@@H](CC(=O)O)C(=O)O` [Arg-Asp] (H-Arg-Asp-OH) showed an inhibition constant Ki of over 5.11 µM.

As to `C[C@H](N)C(=O)N[C@@H](CC(=O)O)C(=O)O` [Ala-Asp] (H-Ala-Asp-OH), the Ki was over 5.11 µM.

Turning to `CC[C@H](C)[C@H](N)C(=O)N[C@@H](CC(=O)O)C(=O)O` [Ile-Asp] (H-Ile-Asp-OH), the inhibition constant Ki was over 5.11 µM.

Take `N[C@@H](Cc1ccc(O)cc1)C(=O)N[C@@H](CC(=O)O)C(=O)O` [Tyr-Asp] (H-Tyr-Asp-OH): the inhibitory constant (Ki) is over 5.11 µM.

As for `N[C@@H](Cc1ccccc1)C(=O)N[C@@H](CC(=O)O)C(=O)O` [Phe-Asp] (H-Phe-Asp-OH), the inhibitory constant (Ki) turned out to be 5.11 ± 0.06 µM.

Regarding `N[C@@H](Cc1c[nH]cn1)C(=O)N[C@@H](CC(=O)O)C(=O)O` [His-Asp] (H-His-Asp-OH), the inhibition constant Ki was over 5.11 µM.

Take `CC(C)[C@H](N)C(=O)N[C@@H](CC(=O)O)C(=O)O` [Val-Asp]: the inhibitory constant (Ki) was over 5.11 µM.

In turn, `CSCC[C@H](N)C(=O)N[C@@H](CC(=O)O)C(=O)O` [Met-Asp] (H-Met-Asp-OH) had an inhibition constant Ki of over 5.11 µM.

Turning to `CC(C)C[C@H](N)C(=O)N[C@@H](CC(=O)O)C(=O)O` [Leu-Asp] (H-Leu-Asp-OH), the inhibition constant (Ki) turned out to be 3.35 ± 0.23 µM.

The molecule `N[C@@H](CC(=O)O)C(=O)N[C@@H](CC(=O)O)C(=O)O` [Asp-Asp] (H-Asp-Asp-OH) returned a Ki of over 5.11 µM.

`C[C@@H](O)[C@H](N)C(=O)N[C@@H](CC(=O)O)C(=O)O` [Thr-Asp] (H-Thr-Asp-OH) had a Ki of over 5.11 µM.

Molecule `N[C@@H](CCC(=O)O)C(=O)N[C@@H](CC(=O)O)C(=O)O` [Glu-Asp] (H-Glu-Asp-OH) showed a Ki of over 5.11 µM.

As for `O=C(O)C[C@H](NC(=O)[C@@H]1CCCN1)C(=O)O` [Pro-Asp] (H-Pro-Asp-OH), the Ki is over 5.11 µM.

Regarding `NCC(=O)N[C@@H](CC(=O)O)C(=O)O` [Gly-Asp] (H-Gly-Asp-OH), the Ki was over 5.11 µM.

Regarding `NC(=O)CC[C@H](N)C(=O)N[C@@H](CC(=O)O)C(=O)O` [Gln-Asp] (H-Gln-Asp-OH), the inhibition constant Ki was over 5.11 µM.
